Tests used:
[1] = tested on: mouse mesenteric resistance arteries; assay: Vascular reactivity in mouse mesenteric resistance arteries (wire myograph); details: 10^−5 mol/L, pre-constricted with U-46619 0.1 μmol/L, n=11
Description: On the day preceding the experiment, adult male mice (age 3-6 months) were decapitated and mesenteric tissue was dissected and placed on an agar plate with ice-cold HEPES-physiological saline solution (PSS) containing: 123 mM NaCl, 4.7 mM KCl, 2.5 mM CaCl2*2H2O, 1.2 mM MgSO4*7H2O, 20 mM NaHCO3, 1.2 mM KH2PO4, 26 μM EDTA, 11 mM glucose and 2.38 mg/ml HEPES Fat and connective tissue were carefully removed, arterioles (150-200 μm diameter) were cut into 3 mm segments and stored overnight at 4° C. The vessels were then mounted carefully on two tungsten wires (0.025 mm diameter) with care not to damage the endothelium, and mounted on a four-chamber wire myograph (DMT, Denmark, Model 620 M). Arteries were then equilibrated at 37° C. for 30 min in the myograph chamber filled with PSS and constantly bubbled with gas containing 21% O2, 74% N2, and 5% CO2 and set at 1 mN resting tension obtained in the LabChart Pro software (AD instruments, Oxfordshire, UK). […] After contraction reached steady state, cumulative concentrations of 5,6-diHETE lactone were added (1 μM to 10 μM) in DMSO (up to 0.16%) and the % relaxation responses were determined relative to the relaxation response to 100 μM papaverine.
To evaluate the vasodilation mediated by 5,6-diHETE lactone, mesenteric arteries from C57BL were extracted and monitored for their dilation in a wire myograph chamber under physiological conditions. […]

[2] = tested on: Sprague-Dawley 5/6Nx rats; assay: Direct blood pressure measurement in 5/6Nx rats after acute injection; assay type: in vivo, rat
Description: Direct blood pressure measurements—For direct blood pressure (BP) evaluation, Sprague-Dawley 5/6Nx rats were deeply anesthetized by an injection of 87 mg/kg ketamine and 13 mg/kg xylazine (intramuscular) mixture. Next, the rats were instrumented with a venous line and an arterial line. Specifically, using 26G i.v. cannula (BD Neoflon, Helsinborg, Sweden) we punctured one of the tail veins, and installed the cannula. Next, 1 ml of saline heparin (500 IU/ml) mixture was administered to avoid blood clotting. Concomitantly, we installed the arterial line, after a neck incision we bluntly exposed the right carotid and ligated it distally. Then the artery was clamped proximally and incised between the ligation and the clamp. A 100 PE tube was advanced into the artery and tightened in it by second ligature aimed to avoid blood leakage, and then we removed the arterial clamp. The external tube was attached to a Luer stopcock valve, through which saline could be injected, blood withdrawn and to be connected to a pressure transducer.
Upon connecting and stabilization, signals were continuously sampled at a sampling rate of 200 samples/sec by the MPVS-300 system, recorded.
Basal BP was recorded for 10 min, after which time 0.5 ml 5,6-diHETE lactone (0.3 mg/kg and 3 mg/kg) dissolved in saline+DMSO (9:1) were injected through the venous line, and BP was recorded for additional 10 min after injection. For control, two distinct, known BP lowering agents were used consecutively, labetalol (10 mg/kg) a known a and p adrenergic inhibitor, and amlodipine (1.5 mg/kg) a calcium channel blocker (each by 0.5 ml venous injection). BP was recorded for additional 10 min after each injection. Specifically, after lactone effect recording labetalol was administered and 10 min later the amlodipine. We terminated the experiment by venous administration of 1M KCl overdose, until the heart stopped.

[3] = target: T1, KCa3.1 (IK) calcium-activated potassium channel (human KCNN4 gene) expressed in CHO cells (Homo sapiens, UniProt O15554); assay: Thallium flux assay, agonist effect on IK channel; assay type: cell-based; details: for Normalized % Activation: IK
T1 construct: expressed in transfected cells
Description: (§1) Potassium channels genes were expressed in HEK293 or CHO cells (see Table 1). SspI or PvuI enzymes were used to linearize pcDNA3.1 plasmid (Thermo Fisher). The plasmid was stably transfected by Lonza Nucleofector. The transfection efficiency was >80% as validated by expression (western blot) and activation (patch clamp and membrane potential detection) of the channels.
(§2) Functional activity of voltage-gated potassium channels was conducted using a potassium dye (Thallium flux assay, Molecular Devices) using a Fluorescence Imaging Plate Reader (FLIPRTETRA™) instrument, according to the manufacturer's instructions. Cells were plated in 384-well black wall, flat clear bottom microtiter plates (BD Biocoat Poly-D Lysine Multiwell Cell Culture Plate) at 15,000 to 30,000 cells per well. Cells were incubated at 37° C. overnight or until cells reach sufficient density in the wells (near confluent monolayer) to use in fluorescence assays. A typical sequence is to record a baseline during the pre-incubation period (first addition of test article before stimulation), followed by activation in the stimulus buffer. For each addition, the first 60 seconds of data are acquired at the maximum rate (1 sample/second) and for the remaining 9-19 minutes (depending on the recording time of each addition); data are sampled every 5 seconds.
(§3) Accordingly, the objective of this study was to evaluate the agonist effects in vitro of the 5,6-diHETE lactone on two cloned human channels stably expressed in HEK-293 or CHO cells. The assay was performed with a thallium flux assay (FLIPR® Potassium Assay, Molecular Devices) according to the manufacturer's instructions. Briefly, cells were plated in 384-well black wall, flat clear bottom microtiter plates (BD Biocoat Poly-D-Lysine Multiwell Cell Culture Plate) at 15,000 to 30,000 cells per well. Cells were incubated at 37° C. overnight or until cells reach sufficient density in the wells (near confluent monolayer) to use in fluorescence assays. Dye-loading: Growth medium was removed and replaced with dye-loading buffer for 60 minutes at room temperature (protected from light). Agonist Effect: 5 repetitions of (5 μL) test, and vehicle or control solutions (assay buffer=0.3% DMSO) in K^+-free buffer with 5 mM Tl^+ was added to each well for ˜5 minutes. The test was 5,6-diHETE lactone (at eight concentrations: 0.05, 0.15, 0.3, 0.65, 1.25, 2.5, 5, and 10 μM, n=4). The agonist effects of the test article on the potassium channels was evaluated during this period by using a Fluorescence Imaging Plate Reader (FLIPRTETRA™) instrument.
(§4) To calculate the effect, the signal elicited in the presence of a known agonist, (1 μM A-23187 for SK3 and 10 μM NS309 for IK) with 5 mM thallium was set to 100% activation and the signal in the presence of the vehicle control (assay buffer+0.3% DMSO) was set to 0% activation. EC50 was calculated using GraphPad prism 5 software using nonlinear regression fit formula assuming a simple binding model.

HUVEC = assay: Calcium imaging, intracellular [Ca2+]i increase in HUVEC; assay type: cell-based, human; details: for changes in cellular [Ca2+]i: 2 μmol/L
Description: HUVECs were plated onto 24-well plates and grown to 70% confluence. To monitor cytosolic Ca^2+ signals, cells were loaded with fluo-3 AM (4 μmol/L; Molecular Probes) and incubated for 40 min at 37° C. in complete medium that contained […] pluronic acid. After washing twice with HEPES buffer that contained (in mmol/L) 1.25 CaCl2, 5.5 D-glucose, 10 HEPES, 5 KCl, 0.5 MgCl2, and 140 NaCl (brought to pH 7.4 with NaOH); the plates were incubated at 37° C. for 15 additional minutes prior to fluorescence imaging. Fluorescence images were acquired every 1 s over the course of 5 min in cells treated with 4α-phorbol-12, 13-didecanoate (4α-PDD; a specific TRPV4 agonist; 10 μmol/L), 5,6-diHETE ((±)5,6-dihydroxy-8Z,11Z,14Z,17Z-eicosatetraenoic acid) 1, 5 lactone (0.01-5 μmol/L) and 5,6-diHETE (hydrolytic isomer of 5,6-EEQ; 2 and 5 μmol/L). The calculated ratio between maximal intensity (F1) and basal intensity (F0) was determine for each experiment and presented as Average±SD.
To investigate the effect of 5,6-diHETE ((±)5,6-dihydroxy-8Z,11Z,14Z,17Z-eicosatetraenoic acid) lactone on cytosolic [Ca^2+]i (FIG. 1), HUVECs were exposed to graded doses of 5,6-diHETE lactone (0.01-5 μmol/L) in ethanol/HEPES buffer, and the intracellular changes in [Ca^2+] were determined by the mean of fluoresces intensity. […] No significant differences in cytosolic [Ca^2+]i levels were detected beyond 0.5 μM lactone. Above this concentration the cytosolic [Ca^2+]i levels reach saturation.
These rapid pathways result in the reduction of epoxide concentrations, and thus, in a decrease in their activity. We therefore tested the ability of the hydrolyzed form compared to the unhydrolyzed form to increase intracellular calcium (FIG. 2).

rat mesenteric arteries = assay: Relaxation of rat mesenteric arteries from NT and 5/6Nx rats (wire myograph)
[4] = target: T2, KCa2.3 (SK3) calcium-activated potassium channel (human KCNN3 gene) expressed in HEK293 cells (Homo sapiens, UniProt Q9UGI6); assay: Thallium flux assay, agonist effect on SK3 channel; assay type: cell-based
T2 construct: expressed in transfected cells
Description: as §1, §2, §3, §4

[5] = tested on: Human adipose arterioles (HAAs); assay: Dilation of human adipose arterioles (HAAs), cannulated, video diameter measurement; details: for max dilation: 10^−7 mol/L, pre-constricted with endothelin-1
Description: Human adipose arterioles (HAAs) were extracted from adipose tissues obtained from subjects without coronary artery disease (7 normotensives and 7 hypertensives). The HAAs (100-200 μm in diameter) were cannulated with 2 glass micropipettes in an organ chamber, and the internal diameter of arterioles was measured with a video system. Arterioles were pre-constricted with endothelin-1 (10-50 nmol/L) to reduce the passive diameter by 30-50%. Relaxation was measured in response to the increasing concentrations of 5,6-diHETE lactone (10^−4-10^−1 μmol/L). To examine the involvement of NO in the 5,6-diHETE lactone-induced dilation, relaxation responses were determined in the presence or absence of nitric oxide synthase (NOS) antagonist (100 μmol/L N[omega]-nitro-Larginine methyl ester [L-NAME]).
Endothelial cell denudation was achieved by perfusion of the vessels with pre-warmed air as previously described (H. Miura, Circ. Res. 92 (2003)). At the end of each experiment, papaverine (100 μmol/L), an endothelium-independent vasodilator, was added to determine the maximal dilation for normalization of dilator responses. Vasodilator responses are expressed as the percentage of maximal dilation, with 100% representing complete relaxation (maximal diameter).

CCC=CCC=CCC=CCC=CCC(O)C1CCCC(=O)O1 (racemic) [5,6-diHETE lactone, 5,6 dihydroxyeicosatetraenoic acid (5,6-diHETE) lactone]
% dilation (relative to 100 μM papaverine) [1]: 29.4±3.1%
percent reduction of SBP from baseline ([2]; 0.3 mg/kg i.v.): about 20%
systolic blood pressure (SBP) upon injection ([2]; 0.3 mg/kg i.v., baseline 188.0±5.5 mmHg, 3 rats): 162.5±12.3 mmHg
EC50 ([3]; CHO cells, 100% = 10 μM NS309, read-out: EC50, IK channel activation): 2650 nM
Normalized % Activation ([3]; 0.05 μM): −0.13%
Normalized % Activation ([3]; 0.15 μM): −0.03%
Normalized % Activation ([3]; 0.3 μM): 0.2%
Normalized % Activation ([3]; 0.65 μM): 1.03%
Normalized % Activation ([3]; 1.25 μM): 6.06%
Normalized % Activation ([3]; 2.5 μM): 44.2%
Normalized % Activation ([3]; 5 μM): 90%
Normalized % Activation ([3]; 10 μM): 98.19%
concentration beyond which cytosolic [Ca2+]i levels show no significant differences (saturation) (HUVEC): 0.5 µM
lowest concentration causing a significant [Ca2+] increase (HUVEC): 0.01 µmol/L
changes in cellular [Ca2+]i (HUVEC): induced
EC50 (HUVEC; Homo sapiens, Fluo4 fluorescence, 0.01-5 μmol/L, read-out: EC50 of [Ca2+]i increase (F1max/F0)): 9.94 nM
% relaxation (relative to papaverine) (rat mesenteric arteries; 5/6Nx vessels, 10^−6M, n=11): 73.3±20.2%
% relaxation (relative to papaverine) (rat mesenteric arteries; NT vessels, 10^−6M, n=11): 58.6±25.0%
effect of pre-treatment with TRAM-34 and apamin on induced relaxation (rat mesenteric arteries; lactone 1 μmol/L, TRAM-34 1 μmol/L and apamin 1 μmol/L, p<0.01): significantly attenuated
EC50 ([4]; HEK293 cells, 100% = 1 μM A-23187, read-out: EC50, SK3 channel activation): 9990 nM
Normalized % Activation ([4]; SK3, 0.05 μM): 0.12%
Normalized % Activation ([4]; SK3, 0.15 μM): 0.35%
Normalized % Activation ([4]; SK3, 0.3 μM): 0.95%
Normalized % Activation ([4]; SK3, 0.65 μM): 3.25%
Normalized % Activation ([4]; SK3, 1.25 μM): 10.16%
Normalized % Activation ([4]; SK3, 2.5 μM): 25.36%
Normalized % Activation ([4]; SK3, 5 μM): 43.17%
Normalized % Activation ([4]; SK3, 10 μM): 73.65%
max dilation ([5]; hypertensive subjects): 40.9%
effect of L-NAME on the dilation ([5]; hypertensive subjects, L-NAME 100 μmol/L): no effect
effect of mechanical denudation of the endothelial layer on induced dilation ([5]; normotensive (healthy) arterioles): significantly reduced
max dilation ([5]; normotensive subjects): 58.6%
reduction of the dilation effect by L-NAME ([5]; normotensive subjects, L-NAME 100 μmol/L): 50%

CC/C=C\C/C=C\C/C=C\C/C=C\CC(O)C(O)CCCC(=O)O (racemic) [5,6-diHETE, (±)5,6-dihydroxy-8Z,11Z,14Z,17Z-eicosatetraenoic acid]
lowest concentration causing a significant [Ca2+] increase (HUVEC): 5 µmol/L
changes in cellular [Ca2+]i (HUVEC): not

CC(=O)OCC[N+](C)(C)C [Acetylcholine, acetylcholine, reference compound]
% relaxation (relative to papaverine) (rat mesenteric arteries; 5/6Nx vessels, acetylcholine concentration response, n=7-13): 63.2±15.6%
% relaxation (relative to papaverine) (rat mesenteric arteries; NT vessels, acetylcholine concentration response, n=7-13): 94.8±5.5%

CC(CCc1ccccc1)NCC(O)c1ccc(O)c(C(N)=O)c1 (centres unmarked) [labetalol, reference compound]
percent reduction of SBP from baseline ([2]; 10 mg/kg i.v., given after the lactone): about 20%
